Test results taken from US20250382344A1, “Soluble GLP1/GIP/NPY2 Receptor Triple Agonists” (Boehringer Ingelheim International GmH, priority 2024, published 2025).
Read-outs that look alike come from different tables or passages of the source.

Key:
[1] = target: T1, hNPY2R (Homo sapiens, UniProt P49146); experiment: hNPY2R CreLuc assay in 0.5% and 100% plasma (HEK-293 CRE-luciferase reporter cells); type: cell-based; conditions: HEK-293 reporter cells
T1 construct: expressed in transfected cells; host or cells: HEK-293 CRE-luciferase reporter cells
T1 sequence (P49146 1-381): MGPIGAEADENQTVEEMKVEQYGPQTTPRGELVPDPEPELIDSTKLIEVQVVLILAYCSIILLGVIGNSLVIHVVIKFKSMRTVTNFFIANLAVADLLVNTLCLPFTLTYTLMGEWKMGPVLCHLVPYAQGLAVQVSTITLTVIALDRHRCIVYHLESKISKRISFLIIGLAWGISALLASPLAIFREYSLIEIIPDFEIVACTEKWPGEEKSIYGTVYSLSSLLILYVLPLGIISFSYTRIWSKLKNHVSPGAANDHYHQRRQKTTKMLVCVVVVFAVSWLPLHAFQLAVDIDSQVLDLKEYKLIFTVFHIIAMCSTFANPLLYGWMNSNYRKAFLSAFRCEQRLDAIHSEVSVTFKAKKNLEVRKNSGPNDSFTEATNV
From the text: CHO and HEK-293 recombinant cell lines express a luciferase reporter gene under control of the CAMP responsive element (CRE). As a second recombinant protein the GLP-1 and NPY2 receptors were expressed in the reporter gene HEK cells, and the GIP receptor was expressed in the reporter gene CHO cells, respectively. Stimulation of these recombinant cells with an agonist leads to an increase of intracellular CAMP levels. In the presence of CAMP, the transcription factor CRE binding protein (CREB) binds to the CRE and to the CREB binding protein (CBP), which leads to transcription of the luciferase reporter gene. Peptides upon serial-dilution in 100% DMSO were transferred into 384-well assay plates with 5 μl pre-dispensed assay buffer (1×HBSS, 20 mM HEPES, pH7.4 supplemented with 0.5% human plasma) using acoustic dispensing on a Labcyte ECHO. Cryo-preserved transgenic reporter gene cells were thawed in assay buffer. 20 μl (10.000 cells/well) were added to the plate with the peptides and incubated for 4 hours at 37° C. in a humidified incubator. Following incubation, assay plates are equilibrated to room temperature, followed by addition of 25 μl of Bright-Glo™ Luciferase reagent, incubation at room temperature for 10 minutes and analysis of luminescence (Envision Reader). […] EC50 values were calculated by non-linear regression using sigmoid concentration-response with variable slope.
The same assays were run in the presence of 100% plasma with no additional buffer constituents.

[2] = Solubility in 0.1 M phosphate buffer at pH 7; type: physicochemical; conditions: 0.1 M phosphate buffer at pH 7, 10 mg/mL final peptide concentration, shaking 2 hours at room temperature, peptides as TFA-salts; measured sample pH 6.5-7.0
[3] = target: T2, hGIPR (Homo sapiens, UniProt P48546); experiment: hGIPR CreLuc assay in 0.5% and 100% plasma (CHO CRE-luciferase reporter cells); type: cell-based; conditions: 0.5% human plasma, read-out: hGIPR 0.5% hP
T2 construct: expressed in transfected cells; host or cells: CHO CRE-luciferase reporter cells
T2 sequence (P48546 22-466): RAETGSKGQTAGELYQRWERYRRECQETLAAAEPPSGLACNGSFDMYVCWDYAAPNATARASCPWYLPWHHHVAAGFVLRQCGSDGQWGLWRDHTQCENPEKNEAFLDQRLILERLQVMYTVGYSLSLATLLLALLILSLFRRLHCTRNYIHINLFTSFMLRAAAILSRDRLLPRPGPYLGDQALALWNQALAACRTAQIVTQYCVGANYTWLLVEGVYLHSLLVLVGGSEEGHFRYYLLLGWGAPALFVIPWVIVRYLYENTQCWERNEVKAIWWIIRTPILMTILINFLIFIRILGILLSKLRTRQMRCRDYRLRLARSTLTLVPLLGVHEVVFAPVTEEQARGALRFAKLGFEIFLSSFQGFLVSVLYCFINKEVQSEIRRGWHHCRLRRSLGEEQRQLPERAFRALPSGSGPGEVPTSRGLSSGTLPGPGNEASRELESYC

[4] = 0.5% human plasma, read-out: hNPY2R 0.5% hP

CC[C@H](C)[C@H](NC(=O)[C@H](CO)NC(=O)[C@H](Cc1ccc(O)cc1)NC(=O)[C@H](CC(=O)O)NC(=O)[C@H](CO)NC(=O)[C@@H](NC(=O)[C@H](Cc1ccccc1)NC(=O)[C@@H](NC(=O)CNC(=O)[C@H](CCC(=O)O)NC(=O)C(C)(C)NC(=O)[C@@H](N)Cc1ccc(O)cc1)[C@@H](C)O)[C@@H](C)O)C(=O)N[C@@H](C)C(=O)N[C@@H](CC(C)C)C(=O)N[C@@H](CCC(=O)O)C(=O)N[C@@H](CCCCN)C(=O)N[C@@H](CCC(N)=O)C(=O)N[C@@H](C)C(=O)N[C@@H](CCC(N)=O)C(=O)NC(C)(C)C(=O)N[C@@H](C)C(=O)N[C@@H](Cc1ccccc1)C(=O)N[C@H](C(=O)N[C@@H](CCCNC(=N)N)C(=O)N[C@@H](Cc1c[nH]cn1)C(=O)N[C@@H](CC(C)C)C(=O)N[C@H](C(=O)N[C@@H](CC(N)=O)C(=O)N[C@@H](CCCCNC(=O)CC[C@H](NC(=O)CC[C@H](NC(=O)CC[C@H](NC(=O)CC[C@H](NC(=O)CC[C@H](NC(=O)CC[C@H](NC(=O)CCCCCCCCCCCCCCCCCCC(=O)O)C(=O)O)C(=O)O)C(=O)O)C(=O)O)C(=O)O)C(=O)O)C(=O)NC(C)(C)C(=O)N[C@H](C(=O)N[C@@H](CCCNC(=N)N)C(=O)N[C@@H](CCC(N)=O)C(=O)N[C@@H](CCCNC(=N)N)C(=O)N[C@@H](Cc1ccc(O)cc1)C(N)=O)[C@@H](C)O)[C@@H](C)CC)C(C)C [Compound 29, Y-Aib-E-G-T-F-T-S-D-Y-S-I-A-L-E-K-Q-A-Q-Aib-A-F-V-R-H-L-I-N-K(1,3)-Aib-T-R-Q-R-Y-NH2.C20DA-gGlu-gGlu-gGlu-gGlu-gGlu-gGlu(1,2)]
EC50 [1, 4]: 41.3 nM
solubility at 2 h [2]: 10000 µg/mL
EC50 [3]: 0.8 nM

CC[C@H](C)[C@H](NC(=O)[C@H](CC(C)C)NC(=O)[C@H](Cc1c[nH]cn1)NC(=O)[C@H](CCCNC(=N)N)NC(=O)[C@@H](NC(=O)[C@H](Cc1ccccc1)NC(=O)[C@H](C)NC(=O)C(C)(C)NC(=O)[C@H](CCC(N)=O)NC(=O)[C@H](C)NC(=O)[C@H](CCC(N)=O)NC(=O)[C@H](CCCCN)NC(=O)[C@H](CCC(=O)O)NC(=O)[C@H](CC(C)C)NC(=O)C(C)(C)NC(=O)[C@@H](NC(=O)[C@H](CO)NC(=O)[C@H](Cc1ccc(O)cc1)NC(=O)[C@H](CC(=O)O)NC(=O)[C@H](CO)NC(=O)[C@@H](NC(=O)[C@H](Cc1ccccc1)NC(=O)[C@@H](NC(=O)CNC(=O)[C@H](CCC(=O)O)NC(=O)C(C)(C)NC(=O)[C@@H](N)Cc1ccc(O)cc1)[C@@H](C)O)[C@@H](C)O)[C@@H](C)CC)C(C)C)C(=O)N[C@@H](CC(N)=O)C(=O)N[C@@H](CCCCNC(=O)CC[C@H](NC(=O)CC[C@H](NC(=O)CC[C@H](NC(=O)CC[C@H](NC(=O)CC[C@H](NC(=O)CC[C@H](NC(=O)[C@H]1CC[C@H](CNC(=O)CCCCCCCCCCCCCCCCC(=O)O)CC1)C(=O)O)C(=O)O)C(=O)O)C(=O)O)C(=O)O)C(=O)O)C(=O)NC(C)(C)C(=O)N[C@H](C(=O)N[C@@H](CCCNC(=N)N)C(=O)N[C@@H](CCC(N)=O)C(=O)N[C@@H](CCCNC(=N)N)C(=O)N[C@@H](Cc1ccc(O)cc1)C(N)=O)[C@@H](C)O [Compound 31, Y-Aib-E-G-T-F-T-S-D-Y-S-I-Aib-L-E-K-Q-A-Q-Aib-A-F-V-R-H-L-I-N-K(1,3)-Aib-T-R-Q-R-Y-NH2.C18DA-TRX-gGlu-gGlu-gGlu-gGlu-gGlu-gGlu(1,2)]
EC50 ([1]; 100% human plasma, read-out: hNPY2R 100% hP): 131 nM
solubility at 2 h [2]: 4300 µg/mL
EC50 [3]: 0.6 nM

CC[C@H](C)[C@H](NC(=O)[C@H](CO)NC(=O)[C@H](Cc1ccc(O)cc1)NC(=O)[C@H](CC(=O)O)NC(=O)[C@H](CO)NC(=O)[C@@H](NC(=O)[C@H](Cc1ccccc1)NC(=O)[C@@H](NC(=O)CNC(=O)[C@H](CCC(=O)O)NC(=O)C(C)(C)NC(=O)[C@@H](N)Cc1ccc(O)cc1)[C@@H](C)O)[C@@H](C)O)C(=O)NC(C)(C)C(=O)N[C@@H](CC(C)C)C(=O)N[C@@H](CCC(=O)O)C(=O)N[C@@H](CCCCN)C(=O)N[C@@H](CCC(N)=O)C(=O)N[C@@H](C)C(=O)N[C@@H](CCC(N)=O)C(=O)NC(C)(C)C(=O)N[C@@H](C)C(=O)N[C@@H](Cc1ccccc1)C(=O)N[C@H](C(=O)N[C@@H](CCCNC(=N)N)C(=O)N[C@@H](Cc1c[nH]cn1)C(=O)N[C@@H](CC(C)C)C(=O)N[C@@H](Cc1ccc(O)cc1)C(=O)N[C@@H](CC(N)=O)C(=O)N[C@@H](CCCCNC(=O)[C@@H](N)CCCCNC(=O)CC[C@H](NC(=O)CC[C@H](NC(=O)CC[C@H](NC(=O)CC[C@H](NC(=O)CC[C@H](NC(=O)CC[C@H](NC(=O)CCCCCCCCCCCCCCCCC(=O)O)C(=O)O)C(=O)O)C(=O)O)C(=O)O)C(=O)O)C(=O)O)C(=O)NC(C)(C)C(=O)N[C@H](C(=O)N[C@@H](CCCNC(=N)N)C(=O)N[C@@H](CCC(N)=O)C(=O)N[C@@H](CCCNC(=N)N)C(=O)N[C@@H](Cc1ccc(O)cc1)C(N)=O)[C@@H](C)O)C(C)C [Compound 58, Y-Aib-E-G-T-F-T-S-D-Y-S-I-Aib-L-E-K-Q-A-Q-Aib-A-F-V-R-H-L-Y-N-K(1,3)-Aib-T-R-Q-R-Y-NH2.C18DA-gGlu-gGlu-gGlu-gGlu-gGlu-gGlu-eLys(1,2)]
EC50 ([1]; hNPY2R 100% hP (nM), 100% human plasma): 40 nM
solubility at 2 h [2]: 3300 µg/mL

CC[C@H](C)[C@H](NC(=O)[C@H](CC(C)C)NC(=O)[C@H](Cc1c[nH]cn1)NC(=O)[C@H](CCCNC(=N)N)NC(=O)[C@@H](NC(=O)[C@H](Cc1ccccc1)NC(=O)[C@H](C)NC(=O)C(C)(C)NC(=O)[C@H](CCC(N)=O)NC(=O)[C@H](C)NC(=O)[C@H](CCC(N)=O)NC(=O)[C@H](CCCNC(=N)N)NC(=O)[C@H](CCC(=O)O)NC(=O)[C@H](CC(C)C)NC(=O)C(C)(C)NC(=O)[C@@H](NC(=O)[C@H](CO)NC(=O)[C@H](Cc1ccc(O)cc1)NC(=O)[C@H](CC(=O)O)NC(=O)[C@H](CO)NC(=O)[C@@H](NC(=O)[C@H](Cc1ccccc1)NC(=O)[C@@H](NC(=O)CNC(=O)[C@H](CCC(=O)O)NC(=O)C(C)(C)NC(=O)[C@@H](N)Cc1ccc(O)cc1)[C@@H](C)O)[C@@H](C)O)[C@@H](C)CC)C(C)C)C(=O)N[C@@H](CC(N)=O)C(=O)N[C@@H](CCCCNC(=O)[C@@H](N)CCCCNC(=O)CC[C@H](NC(=O)CC[C@H](NC(=O)CC[C@H](NC(=O)CC[C@H](NC(=O)CC[C@H](NC(=O)CC[C@H](NC(=O)CCCCCCCCCCCCCCCCCCC(=O)O)C(=O)O)C(=O)O)C(=O)O)C(=O)O)C(=O)O)C(=O)O)C(=O)NC(C)(C)C(=O)N[C@H](C(=O)N[C@@H](CCCNC(=N)N)C(=O)N[C@@H](CCC(N)=O)C(=O)N[C@@H](CCCNC(=N)N)C(=O)N[C@@H](Cc1ccc(O)cc1)C(N)=O)[C@@H](C)O [Compound 171, Y-Aib-E-G-T-F-T-S-D-Y-S-I-Aib-L-E-R-Q-A-Q-Aib-A-F-V-R-H-L-I-N-K(1,3)-Aib-T-R-Q-R-Y-NH2.C20DA-gGlu-gGlu-gGlu-gGlu-gGlu-gGlu-eLys(1,2)]
EC50 [1, 4]: 9.9 nM
EC50 [3]: 0.4 nM
